Data on one molecule can be found in US20130005696A1, “BUFADIENOLIDE DERIVATIVES, PREPARING PROCESS THEREOF, COMPOSITION COMPRISING THE SAME AND THE USE THEREOF” (priority 2011, published 2013).

Molecules are shown by their SMILES.

The test system of experiment [1] is HeLa human cervical carcinoma cell line. Kind of experiment: In vitro antitumor activity assay (SRB), HeLa. It is filed as cell-based. Conditions: read-out: IC50, inhibitory activity on cell proliferation of HeLa cell line. The source says:
(§1) HeLa human cervical carcinoma cell line, A-549 human non-small cell lung carcinoma cell line, NCI-H2228 human lung carcinoma cell line, NCI-H460 human lung carcinoma cell line, MDA-MB-231 human breast carcinoma cell line, MCF-7 human breast carcinoma cell line, Bel-7402 human hepatic carcinoma cell line, Hep3B human hepatic carcinoma cell line, QGY-7703 human hepatic carcinoma cell line, MV-4-11 human leukemic cell line, DAUDI human leukemic cell line, Jurkat human leukemic cell line, A498 renal carcinoma cell line, LoVo human colon carcinoma cell line, HCT1116 human colon carcinoma cell line, A431 human skin carcinoma cell line, PANC-1 human pancreatic carcinoma cell line, U87-MG human brain carcinoma cell line, SH-SY5Y human brain carcinoma cell line, RPMI-8226 human bone carcinoma cell line, HT1080 human fibrosarcoma cell line, PC-3 human prostatic carcinoma cell line, AGS human gastric adenocarcinoma cell line, and BGC-823 human gastric adenocarcinoma cell line were purchased from the Cell Bank of the Chinese Academy of Sciences.
(§2) The positive control is bufalin (formulated according to the common method), its purity is 98% or more by HPLC-UV and its structure is identified by NMR. The compounds to be tested and the positive control were diluted with normal saline with a concentration gradient of 10^−4 M, 10^−5 M, 10^−6 M, 10^−7 M and 10^−8 M.
(§3) According to cell growth rate, tumor cells in the log phase of growth were seeded into 96-well culture plates at 100 μL per well, and allowed to attach for 24 hours, followed by addition of a test compound or positive control at 10 μL per well. For each concentration, the test was carried out in triplicate wells. Solvent control wells with addition of normal saline into cell culture and a blank well containing only cell culture medium but without cells for zeroing were also included. The tumor cells were incubated for 72 hours at 37° C. under 5% CO2, and then the culture medium (RPMI-1640) was removed. The cells were fixed with 10% cool TCA by incubating for 1 h at 4° C., washed with distilled water for 5 times, and dried naturally in the air. A solution of SRB (Sigma) (4 mg/mL) in 1% glacial acetic acid was added at 100 μL per well, and the cells were stained for 15 minutes at room temperature, and the supernatant was discarded. The plates were washed for 5 times with 1% acetic acid, and dried in air. Finally, Tris solution was added at 150 μL per well, and the absorbance (A) was measured at a wavelength of 515 nm using a microplate reader. The growth inhibition on tumor cell proliferation was calculated according to the following equation:
(§4) Growth Inhibition (%)=[(Absorbance of negative control−Absorbance of blank)−(Absorbance of sample−Absorbance of blank)]/(Absorbance of negative control−Absorbance of blank)×100%
(§5) Drug concentration: 10 μM, 1 μM, 0.1 μM, 10 nM, 1 nM, 0.1 nM.
(§6) IC50 was fitted by GraphPad Prism 4.

The subject of experiment [2] is A-549 human non-small cell lung carcinoma cell line. Briefly: In vitro antitumor activity assay (SRB), A549. The class given is cell-based. Conditions: Homo sapiens; A549, 72 h, Table 3; read-out: IC50 (72 h), A549.
Excerpt: as §1, §2, §3, §4, §5, §6

Experiment [3] concerns MCF-7 human breast carcinoma cell line. Kind of experiment: In vitro antitumor activity assay (SRB), MCF-7. The class given is cell-based. Conditions: Homo sapiens, MCF7; MCF-7, 72 h, Table 3; read-out: IC50 (72 h), MCF-7.
Excerpt: as §1, §2, §3, §4, §5, §6

Experiment [4] has as its system PC-3 human prostatic carcinoma cell line. Kind of experiment: In vitro antitumor activity assay (SRB), PC-3. The class given is cell-based. Conditions: Homo sapiens, Prostatic carcinoma cell; PC-3, 72 h, Table 3; read-out: IC50 (72 h), PC-3.
Excerpt: as §1, §2, §3, §4, §5, §6

The subject of experiment [5] is MV-4-11 human leukemic cell line. Briefly: In vitro antitumor activity assay (SRB), MV-4-11. The class given is cell-based. Conditions: Homo sapiens, MV4-11; MV-4-11, 72 h, Table 3.
Excerpt: as §1, §2
(§7) According to cell growth rate, tumor cells in the log phase of growth were seeded into 96-well culture plates at 100 μL per well, and allowed to attach for 24 hours, followed by addition of a test compound or positive control at 10 μL per well. For each concentration, the test was carried out in triplicate wells. […] Finally, Tris solution was added at 150 μL per well, and the absorbance (A) was measured at a wavelength of 515 nm using a microplate reader. The growth inhibition on tumor cell proliferation was calculated according to the following equation:
(§8) Growth Inhibition (%)=[(Absorbance of negative control−Absorbance of blank)−(Absorbance of sample−Absorbance of blank)]/(Absorbance of negative control−Absorbance of blank)×100% […]

The subject of experiment [6] is Jurkat human leukemic cell line. Briefly: In vitro antitumor activity assay (SRB), Jurkat. The class given is cell-based. Conditions: Homo sapiens, 72 h, Table 3.
Excerpt: as §1, §2, §7, §8

The subject of experiment [7] is DAUDI human leukemic cell line. Kind of experiment: In vitro antitumor activity assay (SRB), Daudi. Particulars: Homo sapiens, 72 h, Table 3. The class given is cell-based.
Excerpt: as §1, §2, §7, §8

Experiment [8] relates to HT1080 human fibrosarcoma cell line. Kind of experiment: In vitro antitumor activity assay (SRB), HT1080. The class given is cell-based. Conditions: Homo sapiens, HT-1080; HT1080, 72 h, Table 3.
Excerpt: as §1, §2, §7, §8

Experiment [9] relates to NCI-H460 human lung carcinoma cell line. Briefly: In vitro antitumor activity assay (SRB), NCI-H460. The class given is cell-based. Conditions: Homo sapiens; NCI-H460, 72 h, Table 3.
Excerpt: as §1, §2, §7, §8

The subject of experiment [10] is NCI-H2228 human lung carcinoma cell line. Kind of experiment: In vitro antitumor activity assay (SRB), NCI-H2228. Conditions: Homo sapiens; NCI-H2228, 72 h, Table 3. It is filed as cell-based.
Excerpt: as §1, §2, §7, §8

Experiment [11] relates to AGS human gastric adenocarcinoma cell line. Kind of experiment: In vitro antitumor activity assay (SRB), AGS. Particulars: Homo sapiens, 72 h, Table 3. It is filed as cell-based.
Excerpt: as §1, §2, §7, §8

Experiment [12] concerns BGC-823 human gastric adenocarcinoma cell line. Kind of experiment: In vitro antitumor activity assay (SRB), BGC-823. Conditions: Homo sapiens; BGC-823, 72 h, Table 3. The class given is cell-based.
Excerpt: as §1, §2, §7, §8

Experiment [13] relates to MDA-MB-231 human breast carcinoma cell line. Briefly: In vitro antitumor activity assay (SRB), MDA-MB-231. The class given is cell-based. Particulars: Homo sapiens; MDA-MB-231, 72 h, Table 3.
Excerpt: as §1, §2, §7, §8

Experiment [14] relates to HepG2 human-derived tumor cell line. Briefly: In vitro antitumor activity assay (SRB), HepG2. The class given is cell-based. Conditions: Homo sapiens; HepG2, 72 h, Table 3.
The test system of experiment [15] is Hep3B human hepatic carcinoma cell line. Briefly: In vitro antitumor activity assay (SRB), Hep3B. It is filed as cell-based. Particulars: Homo sapiens, 72 h, Table 3.
Excerpt: as §1, §2, §7, §8

The subject of experiment [16] is QGY-7703 human hepatic carcinoma cell line. Kind of experiment: In vitro antitumor activity assay (SRB), QGY7703. The class given is cell-based. Conditions: Homo sapiens, QGY-7703; QGY7703, 72 h, Table 3.
Excerpt: as §1, §2, §7, §8

Experiment [17] has as its system A498 renal carcinoma cell line. Kind of experiment: In vitro antitumor activity assay (SRB), A498. It is filed as cell-based, human. Particulars: Homo sapiens; A498, 72 h, Table 3.
Excerpt: as §1, §2, §7, §8

Experiment [18] deals with HCT-116 human-derived tumor cell line. Kind of experiment: In vitro antitumor activity assay (SRB), HCT-116. The class given is cell-based. Conditions: Homo sapiens; HCT-116, 72 h, Table 3.
Excerpt: as §1, §2, §7, §8

In experiment [19] the test system is A431 human skin carcinoma cell line. Kind of experiment: In vitro antitumor activity assay (SRB), A431. Particulars: Homo sapiens, A-431; A431, 72 h, Table 3. The class given is cell-based.
Excerpt: as §1, §2, §7, §8

For experiment [20], the system named is PANC-1 human pancreatic carcinoma cell line. Kind of experiment: In vitro antitumor activity assay (SRB), PANC-1. The class given is cell-based. Conditions: Homo sapiens; PANC-1, 72 h, Table 3.
Excerpt: as §1, §2, §7, §8

For experiment [21], the system named is RPMI-8226 human bone carcinoma cell line. Kind of experiment: In vitro antitumor activity assay (SRB), RPMI8226. It is filed as cell-based. Particulars: Homo sapiens, RPMI-8226; RPMI8226, 72 h, Table 3.
Excerpt: as §1, §2, §7, §8

Experiment [22] deals with U87-MG human brain carcinoma cell line. Kind of experiment: In vitro antitumor activity assay (SRB), U87-MG. It is filed as cell-based. Conditions: Homo sapiens, U-87 MG, 72 h, Table 3.
Excerpt: as §1, §2, §7, §8

Turning to `C[C@]12CC[C@H](OC(=O)NC3CCNCC3)C[C@H]1CC[C@@H]1[C@@H]2CC[C@]2(C)[C@@H](c3ccc(=O)oc3)CC[C@]12O` [II1E-01], the IC50 was determined as 1.4 nM in experiment [1]; 0.77 ± 0.28 nM in experiment [2]; 9.97 ± 1.45 nM in [3]; 0.41 ± 0.1 nM in [4]; 1.12 ± 0.29 nM in experiment [5]; 1.09 ± 0.26 nM in experiment [6]. In addition, the IC50 in experiment [7] stood at 2.86 ± 0.21 nM; in experiment [8], 2.9 ± 0.33 nM; in [9] it was 0.56 ± 0.05 nM; in experiment [10], 2.5 ± 0.34 nM; in experiment [11], 9.62 ± 0.69 nM; in [12], 0.81 ± 0.07 nM. Also, the IC50 is 7.46 ± 0.33 nM in experiment [13]; 0.51 ± 0.04 nM in [14]; greater than 1000 nM in [15]; 1.11 ± 0.08 nM in experiment [16]; 0.4 ± 0.03 nM in experiment [17]; 2.91 ± 0.09 nM in experiment [18]. Besides, the IC50 in experiment [19] came out at 2.62 ± 0.19 nM; in experiment [20], 0.72 ± 0.19 nM; in [21], 1.53 ± 0.1 nM; in experiment [22], 1.28 ± 0.36 nM.
